We go through one molecule from article PMC3883289, “DER containing two consecutive GTP-binding domains plays an essential role in chloroplast ribosomal RNA processing and ribosome biogenesis in higher plants” (Journal of Experimental Botany, 2013).

In the assay the target is T1, NbDER (MBP:NbDER) (Nicotiana benthamiana, UniProt R4N342, S369A).
T1 construct: gene YphC; without N-terminal chloroplast transit peptide (Met-1 to Ser-60); N-terminal MBP tag kept; E. coli; precursor 651 residues; GD1, GD2 and CTD present; fusion proteins approximately 60-107 kDa
Briefly: phosphate release, Biomol green. Conditions: 1 mM GTP, 3 uM protein, HEPES pH 8, 1 mM Mg (printed MgCl4), room temperature, 18 h. The assay is classed as biochemical.

T1 sequence (R4N342 entry or part of it S369A): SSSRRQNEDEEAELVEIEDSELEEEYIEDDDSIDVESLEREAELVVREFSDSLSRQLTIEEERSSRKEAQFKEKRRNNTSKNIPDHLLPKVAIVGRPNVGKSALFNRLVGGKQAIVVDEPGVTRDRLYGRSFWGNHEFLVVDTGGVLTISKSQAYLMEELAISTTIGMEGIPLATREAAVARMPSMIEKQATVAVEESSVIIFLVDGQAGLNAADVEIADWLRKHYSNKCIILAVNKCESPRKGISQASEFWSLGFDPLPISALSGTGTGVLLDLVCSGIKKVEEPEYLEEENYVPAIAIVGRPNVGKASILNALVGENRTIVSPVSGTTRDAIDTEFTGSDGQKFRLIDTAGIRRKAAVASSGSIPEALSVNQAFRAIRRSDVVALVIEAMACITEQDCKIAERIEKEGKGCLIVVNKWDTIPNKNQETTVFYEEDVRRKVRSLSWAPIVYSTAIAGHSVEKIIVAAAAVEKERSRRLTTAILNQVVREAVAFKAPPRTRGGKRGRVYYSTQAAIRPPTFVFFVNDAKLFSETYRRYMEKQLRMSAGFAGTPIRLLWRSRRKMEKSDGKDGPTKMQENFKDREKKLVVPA

As for `Nc1nc2c(ncn2[C@@H]2O[C@H](COP(=O)(O)OP(=O)(O)OP(=O)(O)O)[C@@H](O)[C@H]2O)c(=O)[nH]1` [GTP], the “phosphate release, Biomol green” value is given as “S162A or S369A mutation in NbDER (PM1 or PM2) reduced the k cat values”.
